Tested on: ampicillin-resistant E. coli
Assay: Bacterial growth curve (OD600 for 24 hours) after treatment
Type: cell-based
Experimental: Bacteria transformation. First, an overnight suspension of E. coli cells (strain K-12 HB101; Bio-Rad, Hercules, Calif.) was pelleted by centrifugation and re-suspended in 250 μL of cold 50 mM calcium chloride (Sigma-Aldrich, St. Louis, Mo.) and placed in an ice bath. After 15 minutes on ice, 10 μg of the plasmid DNA was added, and the cells were returned to the ice bath for an additional 15 minutes. The cells were then heat shocked by placing them in a 42° C. water bath for exactly 45 seconds and then rapidly transferring them back to the ice bath for 2 minutes. This solution was then mixed with 750 μL of Lysogeny broth (LB, Sigma-Aldrich, St. Louis, Mo.). Finally, the complete transformed bacteria solution was streaked for inoculation on a LBagar plate containing 100 μg mL−1 of ampicillin and allowed to incubate overnight at 37° C.
Bacterial interactions. For each experimental trial, a single bacterial colony was selected and grown overnight in LB on a shaking incubator set at 200 rpm and 37° C. […] 100 μL of the bacterial suspension was then combined with varying AgPs treatment concentrations or controls in a 96 well plate. The final treatment volume in each well was brought up to 100 μL using 0.01 M PBS (e.g. 100 μL treatment +0 μL PBS, 90 μL treatment+10 μL PBS, 80 μL treatment+20 μL PBS, etc.). Control treatments were given 100 μL of PBS to keep the media dilution consistent. […]

## CC1(C)S[C@@H]2[C@H](NC(=O)[C@H](N)c3ccccc3)C(=O)N2[C@H]1C(=O)O [free ampicillin, ampicillin]
10^6 CFU mL^−1, OD600 for 24 hours
  bacteriostatic action (delay in time to reach exponential growth phase): no bacteriostatic effect
Ampicillin at 200 μg mL^−1, FIG. 7G
  difference in bacterial growth between control treatments (incl. PBS): no significant differences

Reference: patent publication US20170181971A1, “Nanoparticle- and Drug-Containing Polymersomes for Medical Applications” (Northeastern University, priority 2014, published 2017)
